Data as given in patent publication US20100048400A1, “HERBICIDE COMBINATION” (BAYER CROPSCIENCE AG, priority 2007, published 2010).

Experiments:
Format in all cases: in vivo
Conditions in all cases: after four weeks, 0=no damage 100=complete damage
Abutilon theophrasti = assay: Post-emergence action against weeds, Example 3: greenhouse, visual scoring of damage
Description: (§1) The plant species listed below were sown in Jiffy pots and cultivated in a greenhouse at a day/night rhythm of 22° C./14° C. At the 2-4-leaf stage, the plants were then treated with an aqueous solution of the compounds in question at the stated dosages. After four weeks, the results were scored visually using the following scheme: 0=no damage 100=complete damage AS/ha=active substance/hectare

Polygonum convolvulus [1] = assay: as above
Description: as §1

Polygonum convolvulus [2] = assay: Post-emergence action against weeds, Example 2: greenhouse, visual scoring of damage
Description: as §1

Digitaria sanguinalis = assay: as above
Description: as §1

Setaria viridis = assay: as above
Description: as §1

With `Cc1ccc2c(c1)[C@H](Nc1nc(N)nc([C@@H](C)F)n1)[C@@H](C)C2` [Compound B-47, 2-amino-4-[(1R,2S)-2,6-dimethylindan-1-ylamino]-6-[(1R)-1-fluoroethyl]-1,3,5-triazine] the “Damage ABUTH” value (Abutilon theophrasti; 13 g of AS/ha) was 5, the “Damage ABUTH” value (Abutilon theophrasti; 25 g of AS/ha) was 15 and the “Damage POLCO” value (Polygonum convolvulus [1]; 13 g of AS/ha) was 0. For the same compound, the “Damage POLCO” value (Polygonum convolvulus [1]; 25 g of AS/ha) was 0, the “Damage POLCO” value (Polygonum convolvulus [2]; 13 g of AS/ha) was 0 and the “Damage POLCO” value (Polygonum convolvulus [2]; 25 g of AS/ha) was 0.
In the case of `Cc1ccc2c(c1)[C@H](Nc1nc(N)nc([C@@H](C)F)n1)CC2` [Compound B-22, 2-amino-4-[(1R)-6-methylindan-1-ylamino]-6-[(1R)-1-fluoroethyl]-1,3,5-triazine], the “Damage DIGSA” value (Digitaria sanguinalis; 13 g of AS/ha) is reported as 24 and the “Damage DIGSA” value (Digitaria sanguinalis; 25 g of AS/ha) is reported as 55.
For `Cc1ccc2c(c1)[C@H](Nc1nc(N)nc([C@@H](C)F)n1)[C@H](C)C2` (racemic) [Compound B-44, 2-amino-4-[(1RS,2RS)-2,6-dimethylindan-1-ylamino]-6-[(1RS)-1-fluorethyl]-1,3,5-triazine], the “Damage SETVI” value (Setaria viridis; 13 g of AS/ha) was 3 and the “Damage SETVI” value (Setaria viridis; 25 g of AS/ha) was 5.
